Assay results: ChEMBL document CHEMBL3885861, “Open TG-GATES”

Species on record: Rattus norvegicus
Assay: Open TG-GATES - Regimen: Daily Repeat
Assay type: toxicity, organism-based, Sprague-Dawley
Design: regimen Daily Repeat, gender Male, age 6 weeks
Conditions: in vivo, iv, 6 mg/kg, route intravenous injection, dose level Middle; for APTT / Bas / Eos / Fbg / Hb / Ht / Lym / MCH / MCHC / MCV / Mono / Neu / PT / Plat / RBC / Ret / WBC: tissue Blood; for KIDNEY_L / KIDNEY_R / KIDNEY_TOTAL: tissue Kidney; for LIVER: tissue Liver; for A/G / ALP / ALT / AST / BUN / CRE / Ca / Cl / DBIL / GLC / IP / K / LDH / Na / PL / RALB / TBIL / TC / TG / TP / gamma-GTP: tissue Plasma

## NCCBr [BROMOETHANAMINE]
72 h, time 3 day
  TERMINAL_BW: 227.7 g
  APTT: 22.4 s
  Bas: 0%
  Eos: 1%
  Fbg: 318.4 mg/dL
  Hb: 13.8 g/dL
  Ht: 40%
  Lym: 83.6%
  MCH: 21.2 pg
  MCHC: 34.4%
  MCV: 61.7 fL
  Mono: 2%
  Neu: 12.2%
  PT: 16.2 s
  Plat: 121.7 x10_4/uL
  RBC: 648 x10_4/ul
  Ret: 4.6%
  WBC: 75.6 x10_2/uL
  KIDNEY_L: 1 g
  KIDNEY_R: 1 g
  KIDNEY_TOTAL: 2 g
  LIVER: 10.9 g
  A/G: 1.3
  ALP: 1767.4 IU/L
  ALT: 39.6 IU/L
  AST: 69 IU/L
  BUN: 15.6 mg/dL
  CRE: 0.2 mg/dL
  Ca: 10.9 mg/dL
  Cl: 106.6 meq/L
  DBIL: 0 mg/dL
  GLC: 169 mg/dL
  IP: 6.9 mg/dL
  K: 4.6 meq/L
  LDH: 209.6 IU/L
  Na: 142 meq/L
  PL: 138.8 mg/dL
  RALB: 3.1 g/dL
  TBIL: 0.006 mg/dL
  TC: 71 mg/dL
  TG: 113.8 mg/dL
  TP: 5.6 g/dL
  gamma-GTP: 1.4 IU/L
[…], time 7 day
  TERMINAL_BW: 261 g
  APTT: 23.5 s
  Bas: 0%
  Eos: 1.4%
  Fbg: 282.6 mg/dL
  Hb: 13.9 g/dL
  Ht: 40.1%
  Lym: 83%
  MCH: 21.6 pg
  MCHC: 34.7%
  MCV: 62.2 fL
  Mono: 2.8%
  Neu: 11.8%
  PT: 15.8 s
  Plat: 123.4 x10_4/uL
  RBC: 645 x10_4/ul
  Ret: 3.9%
  WBC: 116 x10_2/uL
  KIDNEY_L: 1.1 g
  KIDNEY_R: 1.1 g
  KIDNEY_TOTAL: 2.1 g
  LIVER: 12.5 g
  A/G: 1.2
  ALP: 1617 IU/L
  ALT: 39.4 IU/L
  AST: 71.4 IU/L
  BUN: 17.6 mg/dL
  CRE: 0.2 mg/dL
  Ca: 10.8 mg/dL
  Cl: 107.4 meq/L
  DBIL: 0 mg/dL
  GLC: 182.2 mg/dL
  IP: 6.9 mg/dL
  K: 4.5 meq/L
  LDH: 204 IU/L
  Na: 141 meq/L
  PL: 140 mg/dL
  RALB: 3 g/dL
  TBIL: 0.002 mg/dL
  TC: 72.4 mg/dL
  TG: 119 mg/dL
  TP: 5.5 g/dL
  gamma-GTP: 1.2 IU/L
[…], time 14 day
  TERMINAL_BW: 314.5 g
  APTT: 22.4 s
  Bas: 0%
  Eos: 1.2%
  Fbg: 327.4 mg/dL
  Hb: 13.8 g/dL
  Ht: 40.3%
  Lym: 85.2%
  MCH: 20.4 pg
  MCHC: 34.3%
  MCV: 59.5 fL
  Mono: 2%
  Neu: 10.6%
  PT: 15.5 s
  Plat: 132 x10_4/uL
  RBC: 676.6 x10_4/ul
  Ret: 3.8%
  WBC: 119.2 x10_2/uL
  KIDNEY_L: 1.3 g
  KIDNEY_R: 1.2 g
  KIDNEY_TOTAL: 2.5 g
  LIVER: 14.7 g
  A/G: 1.1
  ALP: 1499 IU/L
  ALT: 41 IU/L
  AST: 69 IU/L
  BUN: 18.2 mg/dL
  CRE: 0.2 mg/dL
  Ca: 10.8 mg/dL
  Cl: 107 meq/L
  DBIL: 0 mg/dL
  GLC: 170.2 mg/dL
  IP: 7.1 mg/dL
  K: 4.4 meq/L
  LDH: 142.6 IU/L
  Na: 143.2 meq/L
  PL: 145.8 mg/dL
  RALB: 3 g/dL
  TBIL: 0.004 mg/dL
  TC: 77.6 mg/dL
  TG: 98.2 mg/dL
  TP: 5.8 g/dL
  gamma-GTP: 2.8 IU/L
[…], time 28 day
  TERMINAL_BW: 361.2 g
  APTT: 26 s
  Bas: 0%
  Eos: 1.4%
  Fbg: 312.2 mg/dL
  Hb: 15.8 g/dL
  Ht: 42.9%
  Lym: 84.2%
  MCH: 20.4 pg
  MCHC: 36.9%
  MCV: 55.4 fL
  Mono: 1.4%
  Neu: 12.2%
  PT: 16.4 s
  Plat: 110.1 x10_4/uL
  RBC: 775.2 x10_4/ul
  Ret: 2.2%
  WBC: 90.4 x10_2/uL
  KIDNEY_L: 1.3 g
  KIDNEY_R: 1.4 g
  KIDNEY_TOTAL: 2.7 g
  LIVER: 15.7 g
  A/G: 1.1
  ALP: 1273.6 IU/L
  ALT: 32.8 IU/L
  AST: 55 IU/L
  BUN: 18.2 mg/dL
  CRE: 0.2 mg/dL
  Ca: 10.5 mg/dL
  Cl: 106.4 meq/L
  DBIL: 0 mg/dL
  GLC: 185.8 mg/dL
  IP: 6.5 mg/dL
  K: 4.1 meq/L
  LDH: 118 IU/L
  Na: 145 meq/L
  PL: 131.8 mg/dL
  RALB: 3.2 g/dL
  TBIL: 0.004 mg/dL
  TC: 65.2 mg/dL
  TG: 112.2 mg/dL
  TP: 6.2 g/dL
  gamma-GTP: 2.6 IU/L
